A short description of one data set: in vivo. The note with it: both, mouse, po.
For a further data set, the system named is KM mice. Description: Apomorphine induced clambering assay of mice. In kind it is in vivo. The following applies: for ED50: Mus musculus, po, apomorphine 1 mg/kg sc. As for the experimental part:
Healthy KM mice (male, with body weight of 18-22 g) were provided by Qinglongshan Animal Cultivation Center, Nanjing.
Test positive drugs: haloperidol, clozapine, risperidone, olanzapine, aripiprazole, ziprasidone, quetiapine.
Apomorphine provided by Sigma Company was dissolved in 0.9% NaCl (containing 0.1% vitamin C) before use, and was freshly formulated before use.
Corresponding solvent double-distilled water was administered intragastrically to the negative control group and the model group, corresponding positive drugs were administered intragastrically to the positive drug groups (a small amount of acetic acid was first added and then double-distilled water was added when dissolving), and corresponding dosages of compounds were administered intragastrically to the compound groups for each dosage, with the volume for intragastric administration as 0.1 ml/10 g. 1 hour after the intragastric administration, apomorphine was subcutaneously injected (1 mg/kg), with the volume as 0.1 ml/10 g. After the injection of apomorphine, the mice were immediately put into the clambering cages. After 5 min of adaptation, the behaviors of the mice at 10-11, 20-21, and 30-31 min after the injection of apomorphine were observed and scored. Scoring criteria: 4 paws on the floor was scored as 0; 2 forepaws on the cage was scored as 1; and 4 paws on the cage was scored as 2.

The test system of a further data set is mice of Kunming breed. Description: MK-801 induced high activity in mice. In kind it is in vivo. The following applies: compared to the model group. As for the experimental part: Healthy mice of Kunming breed (with half male and half female, (20±2)g) were provided by Qinglongshan Animal Cultivation Center, Nanjing.
Subsequently, the spontaneous activities of the mice of each group in 90 min were measured.

For a further data set, the target named is T1, D3 receptor (Homo sapiens, UniProt P35462).
T1 construct: expressed in transfected cells; host or cells: HEK-293
T1 sequence (P35462 whole entry): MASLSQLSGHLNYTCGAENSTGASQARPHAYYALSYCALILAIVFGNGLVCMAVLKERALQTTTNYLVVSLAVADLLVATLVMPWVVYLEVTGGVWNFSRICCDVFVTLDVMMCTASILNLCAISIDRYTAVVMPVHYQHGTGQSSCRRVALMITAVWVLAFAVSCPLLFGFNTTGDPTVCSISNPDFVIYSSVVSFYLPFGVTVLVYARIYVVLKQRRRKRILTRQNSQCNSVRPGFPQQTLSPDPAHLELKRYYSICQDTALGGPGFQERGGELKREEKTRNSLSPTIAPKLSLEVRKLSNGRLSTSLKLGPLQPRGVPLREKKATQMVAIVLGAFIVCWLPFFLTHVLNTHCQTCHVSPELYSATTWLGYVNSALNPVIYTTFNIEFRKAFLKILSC
The data set can be described thus: D3 receptor assay ([3H]-Spiperone, HEK-293 cells). In kind it is binding. The note with it: for inhibition at 10 µM: final concentration 10 μmol/L, [3H]-Spiperone, HEK-293 cells; for affinity for D3 receptor (in words): in vitro receptor binding assay. On the procedure: After the cells were centrifuged at 1000 rpm for 5 min, the supernatant was discarded, and the cell pellet was collected and stored in a −20° C. fridge for reservation. It was re-suspended with Tris-Cl (pH 7.4) in the assay.
Tris was divided into aliquots by Genetimes Technology Inc.
Competitive binding test for receptors: 20 μl of each of the test compounds and 20 μl of the radioactive ligand together with 160 μl of the receptor proteins were added into the reaction tubes, and the final concentrations of the test compound and the positive drug were all 10 μmol/L. After 50 min of incubation in 30° C. water bath, the tubes were immediately moved to ice bath to terminate the reactions. GF/C glass fiber filter papers were used for rapid sucking filtration on a Millipore cell sample collector, elution buffer (50 mM Tris-HCl, PH 7.4) was applied for 3 ml×3 times, and microwave was applied for 4-5 min for drying. The filter papers were moved into 0.5 ml centrifuge tubes, and 500 μl of lipid-soluble scintillation solution was added. The tubes were allowed to stand still for over 30 min in dark, and the intensities of radioactivity were measured by a counter.

Another data set concerns the target 5-HT2A receptor (Rattus norvegicus, UniProt P14842). Description: 5HT2A receptor binding assay ([3H]-Ketanserin, rat brain striatum membrane). The note with it: for IC50: cells marked ^a; for IC50 / inhibition at 10 µM: [3H]-Ketanserin, rat brain striatum membrane; for inhibition at 10 µM: test compound final concentration 10^−5 M, read-out: 5HT2A inhibition %.
The target in a further data set is 5-HT2C receptor (Rattus norvegicus, UniProt P08909). The data set can be described thus: 5HT2C receptor binding assay ([3H]-mesulergine, rat brain striatum membrane). The following applies: for inhibition at 10 µM: test compound final concentration 10^−5 M, [3H]-mesulergine, rat brain striatum membrane, read-out: 5HT2C inhibition %.
Sequence of 5-HT2C receptor (P08909 33-460): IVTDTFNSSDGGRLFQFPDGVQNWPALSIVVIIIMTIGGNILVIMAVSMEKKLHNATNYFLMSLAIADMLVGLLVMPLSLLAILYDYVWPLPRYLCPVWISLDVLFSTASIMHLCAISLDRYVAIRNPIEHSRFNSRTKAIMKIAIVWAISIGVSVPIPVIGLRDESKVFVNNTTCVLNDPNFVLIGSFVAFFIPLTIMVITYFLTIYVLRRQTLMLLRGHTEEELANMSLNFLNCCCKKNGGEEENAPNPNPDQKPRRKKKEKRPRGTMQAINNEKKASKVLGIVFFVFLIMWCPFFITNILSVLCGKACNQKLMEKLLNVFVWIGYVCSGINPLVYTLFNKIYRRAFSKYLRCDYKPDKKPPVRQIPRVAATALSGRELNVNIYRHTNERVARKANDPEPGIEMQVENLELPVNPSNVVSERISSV
A further data set concerns the target dopamine D2 receptor (Rattus norvegicus, UniProt P61169). Description: D2 receptor binding assay (3H-Spiperone, rat brain striatum membrane). The following applies: for affinity for D2 receptor (in words): in vitro receptor binding assay; for inhibition at 10 µM: read-out: D2 inhibition %.
The next data set concerns the target T2, 5-HT1A receptor (Rattus norvegicus, UniProt P19327).
T2 sequence (P19327 1-422): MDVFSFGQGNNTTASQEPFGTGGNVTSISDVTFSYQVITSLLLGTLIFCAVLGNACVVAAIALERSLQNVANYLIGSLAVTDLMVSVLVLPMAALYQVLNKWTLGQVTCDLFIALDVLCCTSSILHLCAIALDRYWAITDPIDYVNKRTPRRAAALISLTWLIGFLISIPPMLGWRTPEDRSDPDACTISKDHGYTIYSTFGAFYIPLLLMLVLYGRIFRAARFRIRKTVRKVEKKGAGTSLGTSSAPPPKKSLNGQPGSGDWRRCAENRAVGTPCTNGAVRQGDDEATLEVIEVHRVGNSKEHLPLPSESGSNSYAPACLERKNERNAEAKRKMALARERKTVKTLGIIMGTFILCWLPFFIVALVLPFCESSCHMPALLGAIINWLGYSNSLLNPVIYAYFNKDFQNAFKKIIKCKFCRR
The data set can be described thus: 5HT1A receptor binding assay (3H-8-OH-DPAT, rat brain striatum membrane). The following applies: for IC50: cells marked ^a; for IC50 / inhibition at 10 µM: 3H-8-OH-DPAT, rat brain striatum membrane; for affinity for 5-HT1A receptor (in words): in vitro receptor binding assay; for inhibition at 10 µM: test compound final concentration 10^−5 M. As for the experimental part:
Incubation at 37° C. was conducted for 10 min, the weight of the tubes were adjusted using a balance after incubation. […] Centrifugation was conducted and repeated 3 times.

Sequence of 5-HT2A receptor (P14842 whole entry): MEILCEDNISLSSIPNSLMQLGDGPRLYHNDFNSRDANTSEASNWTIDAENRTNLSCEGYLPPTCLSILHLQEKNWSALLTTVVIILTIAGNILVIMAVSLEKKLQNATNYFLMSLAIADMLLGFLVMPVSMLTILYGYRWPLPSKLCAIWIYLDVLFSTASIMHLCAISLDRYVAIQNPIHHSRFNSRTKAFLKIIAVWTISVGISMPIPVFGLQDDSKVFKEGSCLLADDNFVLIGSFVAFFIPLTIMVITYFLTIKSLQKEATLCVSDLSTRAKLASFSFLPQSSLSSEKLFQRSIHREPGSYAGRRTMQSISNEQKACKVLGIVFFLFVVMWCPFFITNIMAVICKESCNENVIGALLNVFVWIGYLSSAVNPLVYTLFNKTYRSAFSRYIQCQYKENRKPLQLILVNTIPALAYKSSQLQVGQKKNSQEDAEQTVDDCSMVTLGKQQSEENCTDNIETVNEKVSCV
Sequence of dopamine D2 receptor (P61169 whole entry): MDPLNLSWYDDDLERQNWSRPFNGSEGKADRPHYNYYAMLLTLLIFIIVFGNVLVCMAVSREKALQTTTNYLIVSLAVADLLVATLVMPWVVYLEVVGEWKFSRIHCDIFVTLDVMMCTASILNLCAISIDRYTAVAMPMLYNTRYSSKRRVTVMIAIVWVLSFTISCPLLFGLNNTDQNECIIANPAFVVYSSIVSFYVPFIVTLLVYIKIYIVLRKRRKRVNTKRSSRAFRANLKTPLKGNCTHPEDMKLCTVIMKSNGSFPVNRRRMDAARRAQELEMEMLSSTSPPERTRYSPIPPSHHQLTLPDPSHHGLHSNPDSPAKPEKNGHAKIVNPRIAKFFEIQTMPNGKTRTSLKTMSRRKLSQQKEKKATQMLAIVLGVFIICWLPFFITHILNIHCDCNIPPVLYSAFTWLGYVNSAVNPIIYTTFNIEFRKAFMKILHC
Procedure for dopamine D2 receptor: Rats were sacrificed by cervical dislocation on ice. Brain striatum was rapidly taken, and 2 brain striatums were combined into a centrifuge tube, to which 3 ml of buffer (0.05 M Tris-HCl buffer, containing NaCl 120 mM, KCl 5 mM, MgCl2 1 mM, CaCl2 1 mM) was added, homogenization was conducted for 3-4 s at level 4 for four times, and then 5 ml of buffer was then added. The weight of the homogenized tubes were adjusted using a balance, and centrifugation was conducted at 12000 r, 4° C. for 20 min. The supernatant was discarded, and 3 ml of buffer was added (0.05 M Tris-HCl buffer, containing NaCl 120 mM, KCl 5 mM, MgCl2 1 mM, CaCl2 1 mM). Vortex mixer was used for blending, and then 5 ml of buffer was added (0.05 M Tris-HCl buffer, containing NaCl 120 mM, KCl 5 mM, MgCl2 1 mM, CaCl2 1 mM). Centrifugation was conducted (repeated 3 times). After the centrifugations, the supernatant was discarded, and the pellets were stored at −80° C. for future use.
Beckman LS-6500 Multi-function Liquid Scintillation Counter was used.
(1) The prepared membrane was first applied with appropriate amount of homogenized liquid, and homogenizer was used for evenly dispersing. 15 tubes were mixed into a 100 ml container, and appropriate amount of homogenized liquid was added to give 50 ml of membrane suspension, which was reserved for future use.
(2) 100 μL of membrane preparation and 100 μL of buffer were added into each reaction tube.
(3) 100 μL of homogenized liquid was added into the total binding tube (TB), 100 μL of Butaclamol (final concentration 10^−5 M) was added into the non-specific binding tube (NB), and 100 μL of the test compound (final concentration 10^−5 M) was added into the specific binding tube (SB) for each compound.
(5) Each of the reaction tubes was incubated at 37° C. for 20 min. After the reaction was completed, the bound ligands were rapidly filtered under reduced pressure, and the ice-chilled assay buffer was used for adequate washing. The filter was taken out and put into a 3 ml scintillation vial, and 2 ml of toluene scintillation solution was added and blended.
(6) The scintillation vials were put into Liquid Scintillation Counter for counting. Inhibitory rate(1%)=(Total binding tube cpm−compound cpm)/(Total binding tube cpm−non-specific binding tube cpm)×100%
Each assay for the compounds was conducted in duplicate.
Procedure for in vivo: KM mice (half male and half female) were randomly divided into several groups (with 2-5 mice in each group), which were respectively the 2000 mg/kg groups for each compound, and the solvent group. 0.2 ml/10 g were administered intragastrically. The death of the animals in 3 days were observed. (In the case 3 or more animals survived in 3 days without notable abnormity in their life states, the observation was continued until the assay was completed in 7 days. In the case 3 or more animals died in 3 days, the median lethal dose method was used to determine the LD50).
0.2 ml/10 g were administered intragastrically, and the death of the animals in 1-3 days were observed.

What is called LD50 is the dose at which mortality reaches 50%. A low value points to greater toxicity. The term ED50 denotes the midpoint of the dose-response relation. A lower ED50 goes with an effect at a small dose. In turn, `Cc1nc2n(c(=O)c1CCN1CCC(c3noc4cc(F)ccc34)CC1)CCCC2` [risperidone, reference compound] gave an LD50 in “in vivo” of 82.1 mg/kg. In the data set with KM mice, the “improvement of apomorphine induced clambering symptoms (in words)” value is on record as “effectively improve” and the ED50 stood at 0.015 mg/kg. In addition, in the data set with mice of Kunming breed, the “improvement of MK-801 induced high activity (in words)” value is recorded as “significantly improve”.

Broadly, the inhibition is the change of the read-out against control, counted positive when it falls. Usually IC50 stands for the concentration at which inhibition is half-maximal. A low value points to greater potency. Usually melting point stands for the temperature, or range, at which the solid turns liquid. With `Cc1cc(=O)oc2c(Cl)c(OCCCN3CCN(c4nsc5ccccc45)CC3)ccc12` [Compound 22, 7-(3-(4-(3-(1,2-benzisothiazole)-1-piperazinyl)-n-propoxy))-4-methyl-8-chloro-2H-benzopyran-2-one], the melting point fell in the range of 162 to 164 °C. In addition, at D3 receptor, the inhibition at 10 µM was found to be 104% and the “affinity for D3 receptor (in words)” value is “relatively stronger affinities”. At 5-HT2A receptor, the “affinity for 5-HT2A receptor (in words)” value is listed as “relatively stronger affinities” and the IC50 came to 6.88 nM. Further, on 5-HT2C receptor, the “affinity for 5-HT2C receptor (in words)” value was “lower affinities” and the inhibition at 10 µM came out at 99.8%. Besides, on dopamine D2 receptor, the “affinity for D2 receptor (in words)” value was “relatively stronger affinities” and the inhibition at 10 µM turned out to be 112%. Besides, at 5-HT1A receptor, the IC50 turned out to be 12.8 nM and the “affinity for 5-HT1A receptor (in words)” value is listed as “relatively stronger affinities”.

Turning to `O=c1cc(-c2ccccc2)c2ccc(OCCCN3CCN(c4nsc5ccccc45)CC3)cc2o1` [Compound 12, 7-(3-(4-(3-(1,2-benzisothiazole)-1-piperazinyl)-n-propoxy))-4-phenyl-2H-benzopyran-2-one], on D3 receptor, the inhibition at 10 µM is 103% and the “affinity for D3 receptor (in words)” value is recorded as “relatively stronger affinities”. In addition, at 5-HT2A receptor, the “affinity for 5-HT2A receptor (in words)” value is recorded as “relatively stronger affinities” and the IC50 came to 9.26 nM. In addition, at 5-HT2C receptor, the “affinity for 5-HT2C receptor (in words)” value is “lower affinities” and the inhibition at 10 µM is 93.4%. Further, at dopamine D2 receptor, the “affinity for D2 receptor (in words)” value is “relatively stronger affinities” and the inhibition at 10 µM was found to be 124%. Also, on 5-HT1A receptor, the IC50 stood at 127 nM and the “affinity for 5-HT1A receptor (in words)” value is recorded as “relatively stronger affinities”.

In turn, `O=c1cc(C(F)(F)F)c2ccc(OCCCCN3CCN(c4nsc5ccccc45)CC3)cc2o1` [Compound 18, 7-(4-(4-(3-(1,2-benzisothiazole)-1-piperazinyl)-n-butoxy))-4-(trifluoromethyl)-2H-benzopyran-2-one] displayed a melting point of 93 to 95 °C. Further, on D3 receptor, the inhibition at 10 µM was found to be 103% and the “affinity for D3 receptor (in words)” value was “relatively stronger affinities”. For the same molecule, on 5-HT2A receptor, the “affinity for 5-HT2A receptor (in words)” value was “relatively stronger affinities” and the IC50 was determined as 0.79 nM. Moreover, at 5-HT2C receptor, the “affinity for 5-HT2C receptor (in words)” value is listed as “lower affinities” and the inhibition at 10 µM is 77.6%. Moreover, on dopamine D2 receptor, the “affinity for D2 receptor (in words)” value is given as “relatively stronger affinities” and the inhibition at 10 µM came out at 113%. In addition, at 5-HT1A receptor, the IC50 was 6.19 nM and the “affinity for 5-HT1A receptor (in words)” value was “relatively stronger affinities”.

In turn, `Cc1cc(=O)oc2cc(OC/C=C/CN3CCC(c4noc5cc(F)ccc45)CC3)ccc12` [Compound 10, (E)-7-(4-(4-(3-(6-fluoro-benzisoxazole)-3-piperidyl)-but-2-enyloxy))-4-methyl-2H-benzopyran-2-one] came in with a melting point of 129 to 130 °C. The inhibition at 10 µM at 5-HT2A receptor worked out at 109%. For the same molecule, at dopamine D2 receptor, the inhibition at 10 µM turned out to be 111%. Moreover, the inhibition at 10 µM at 5-HT1A receptor was found to be 102%.

`CCCc1cc(=O)oc2cc(OCCCCN3CCC(c4noc5cc(F)ccc45)CC3)ccc12` [Compound 25, 7-(4-(4-(3-(6-fluoro-benzisoxazole)-1-piperidyl)-n-butoxy))-4-n-propyl-2H-benzopyran-2-one] came in with a melting point of 139 to 141 °C. Also, on 5-HT2A receptor, the inhibition at 10 µM was determined as 40.2%. On dopamine D2 receptor, the inhibition at 10 µM amounted to 70.7%. The inhibition at 10 µM at 5-HT1A receptor turned out to be 84.5%.

On to `Cc1cc2c(s1)Nc1ccccc1N=C2N1CCN(C)CC1` [olanzapine, reference compound], for which, in the data set on KM mice, the ED50 is 0.11 mg/kg.

On to `Cc1cc(=O)oc2cc(OCC(O)CN3CCC(c4noc5cc(F)ccc45)CC3)ccc12` (stereo not shown) [Compound 32, 7-(3-(4-(3-(6-fluoro-benzisoxazole)-1-piperidyl)-2-hydroxylpropoxy))-4-methyl-2H-benzopyran-2-one], for which the melting point is 183 to 185 °C. The inhibition at 10 µM at 5-HT2A receptor was 157%. The inhibition at 10 µM at dopamine D2 receptor is 62.6%. Also, at 5-HT1A receptor, the inhibition at 10 µM is 103%.

Molecule `O=c1ccc2ccc(OCCCN3CCC(c4noc5cc(F)ccc45)CC3)cc2o1` [Compound 3, 7-(3-(4-(3-(6-fluoro-benzisoxazole)-1-piperidyl)-n-propoxy))-2H-benzopyran-2-one] yielded a melting point of 128 to 130 °C. The inhibition at 10 µM on 5-HT2A receptor was found to be 101%. Moreover, the inhibition at 10 µM on dopamine D2 receptor turned out to be 106%. For the same molecule, on 5-HT1A receptor, the inhibition at 10 µM stood at 42.3%.

In turn, `Cc1cc(=O)oc2c(Cl)c(OCCCCN3CCN(c4nsc5ccccc45)CC3)ccc12` [Compound 20, 7-(4-(4-(3-(1,2-benzisothiazole)-1-piperazinyl)-n-butoxy))-4-methyl-8-chloro-2H-benzopyran-2-one] displayed a melting point of 133 to 135 °C. In addition, the inhibition at 10 µM at 5-HT2A receptor turned out to be 15.5%. Further, at dopamine D2 receptor, the inhibition at 10 µM was 9.7%. Also, the inhibition at 10 µM at 5-HT1A receptor was determined as 92.8%.

As to `O=c1cc(CO)c2ccc(OCCCCN3CCC(c4noc5cc(F)ccc45)CC3)cc2o1` [Compound 31, 7-(4-(4-(3-(6-fluoro-benzisoxazole)-1-piperidyl)-n-butoxy))-4-hydroxymethyl-2H-benzopyran-2-one], the melting point is 160 to 162 °C. The inhibition at 10 µM on 5-HT2A receptor worked out at 1.8%. For the same molecule, the inhibition at 10 µM on dopamine D2 receptor turned out to be 2.4%. Moreover, the inhibition at 10 µM at 5-HT1A receptor turned out to be 63.9%.

Values taken from US9315496B2, “Benzopyrone derivative and use thereof” (HUAZHONG UNIVERSITY OF SCIENCE & TECHNOLOGY, priority 2011, dated 2016).
